Patent US10898504B2, “Substituted nucleoside analogues for use as PRMT5 inhibitors” (Janssen Pharmaceutica NV, priority 2016, dated 2021)
“And” between values parts separate entries of the source, which are not always exact repeats. Equal entries are not always repeated.

Experiments:
A549 cells = assay: PD assay (Assay 2): inhibition of nuclear symmetric Arginine dimethylation (SYM10 immunohistochemistry) in A549 cells; assay type: cell-based; conditions: individual measurements shown; for IC50: Homo sapiens, A549, PD assay in A549 cells, read-out: pIC50 Assay 2 (converted); for pIC50 Assay 2: PD assay in A549 cells
Protocol: EXPERIMENTAL PROCEDURE PD ASSAY (ASSAY 2)
A549 cells (ATCC, Cat #CCL-185) were cultured in Dulbecco's Modified Eagle's Medium (DMEM) (Sigma, Cat #D5796), supplemented with 10% Fetal Calf Serum (FCS)(HyClone™, Cat #SV30160.03), 100 mM Sodium Pyruvate (Sigma, Cat #S8636), 200 mM L-Glutamine (Sigma, Cat #G7513) and 50 mg/mL Gentamycing (Gibco, Cat #15750-037).
Reagents used for buffers were purchased: Dulbecco's phosphate buffered saline (DPBS) without Ca/Mg (Sigma, Cat #D8537), phosphate buffered saline (PBS) 10× (Roche, Cat #11 666 789 001), Formalin solution 10% (Sigma, HT50-1-128-4L), MeOH 100% (Sigma, Cat #32213-2.5L), Triton X-100 (Acros, Cat #215680010), Bovine Serum Albumin (BSA) (Sigma, Cat #A2153), Alexa fluor 488 goat anti-rabbit antibody (Life Technologies, Cat #A11034), HCS CellMask Deep Red Stain (Life Technologies, Cat #H32721), Hoechst Stain (Life Technologies, Cat #33258), Anti-dimethyl-Arginine, sym (SYM10) antibody (Millipore, 07-412).
Immunohistochemistry Procedure
Cells were plated at 400 cells/40 μL/well in 384 well black plates μclear bottom (Perkin Elmer) and overnight incubated at 37° C., 5% CO2. The IC50 Studies were performed using nine point dosing series ranging from 10 μM to […] for each compound. 80 nL of the respective dilution of the compounds was added using the Labcyte POD 810 (Labcyte) reaching a final DMSO concentration of 0.2% in cell culture. After an incubation period of 48 h at 37° C. and 5% CO2, cells were fixed in 10% formalin solution for 15 min at r.t. and 20 min in ice-cold MeOH, after which they were washed 3× in DPBS. Subsequently, the cells were blocked for 1 h in blocking buffer (PBS+1% BSA and 0.5% Triton X-100) and incubated overnight at 4° C. with the SYM10 antibody diluted 1/2000 in blocking buffer. The cells were washed 3× with washing buffer (PBS+0.1% Triton X-100) and incubated with the Alexa fluor 488 goat anti-rabbit antibody diluted 1/200 in blocking buffer for 1 h at r.t. Subsequently, they were washed 3× with washing buffer and incubated for 30 min at r.t. with PBS containing a 1/5000 dilution of Hoechst Stain and a 1/5000 dilution of the HCS CellMask Deep Red Stain. After a final wash with PBS, the plates were imaged using the 10×W lens of the Opera® system (Perkin Elmer Life Sciences) using following settings (values in nm):
In the above equations, the following variable names are use: […]
In the above equations, the following controls were used for normalization: […]
Low control: minimum level of symmetrically dimethylated Arginines (cells treated with reference compound at 10 μM).
High control: maximum level of symmetrically dimethylated Arginines (DMSO treated cells).
IC50 and pIC50 (−log IC50) values were calculated using the appropriate software.
pIC50 values (Co. No. means compound number; n.d. means not determined).

PRMT5-MEP50 enzyme = biological target: T1, PRMT5-MEP50 enzyme (Homo sapiens, UniProt O14744); assay: In vitro assay (Assay 1): PRMT5-MEP50 high throughput mass spectrometer assay, inhibition of SAH formation; assay type: biochemical; conditions: individual measurements shown, read-out: pIC50 Assay 1 (converted)
T1 construct: One virus expresses full length human PRMT5 with Flag-tag at N-terminus
T1 sequence (O14744 whole entry): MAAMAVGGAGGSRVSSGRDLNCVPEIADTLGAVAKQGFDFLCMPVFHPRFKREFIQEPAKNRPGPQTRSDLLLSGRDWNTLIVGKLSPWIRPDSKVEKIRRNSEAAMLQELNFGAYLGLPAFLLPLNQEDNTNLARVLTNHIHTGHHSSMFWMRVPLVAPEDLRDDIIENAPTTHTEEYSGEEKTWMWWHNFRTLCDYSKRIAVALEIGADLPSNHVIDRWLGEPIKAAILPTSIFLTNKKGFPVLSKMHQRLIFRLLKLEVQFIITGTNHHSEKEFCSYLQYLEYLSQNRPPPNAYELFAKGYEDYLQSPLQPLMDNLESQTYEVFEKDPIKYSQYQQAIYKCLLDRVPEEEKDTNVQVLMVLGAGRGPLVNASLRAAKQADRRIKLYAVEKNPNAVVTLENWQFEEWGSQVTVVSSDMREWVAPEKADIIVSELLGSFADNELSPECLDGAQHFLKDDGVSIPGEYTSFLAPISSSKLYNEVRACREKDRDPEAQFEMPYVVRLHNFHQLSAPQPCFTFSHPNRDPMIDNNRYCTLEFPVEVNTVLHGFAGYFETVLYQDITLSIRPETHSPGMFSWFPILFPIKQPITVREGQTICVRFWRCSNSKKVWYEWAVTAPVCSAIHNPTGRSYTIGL
T1 sequence (Q9BQA1 whole entry partner): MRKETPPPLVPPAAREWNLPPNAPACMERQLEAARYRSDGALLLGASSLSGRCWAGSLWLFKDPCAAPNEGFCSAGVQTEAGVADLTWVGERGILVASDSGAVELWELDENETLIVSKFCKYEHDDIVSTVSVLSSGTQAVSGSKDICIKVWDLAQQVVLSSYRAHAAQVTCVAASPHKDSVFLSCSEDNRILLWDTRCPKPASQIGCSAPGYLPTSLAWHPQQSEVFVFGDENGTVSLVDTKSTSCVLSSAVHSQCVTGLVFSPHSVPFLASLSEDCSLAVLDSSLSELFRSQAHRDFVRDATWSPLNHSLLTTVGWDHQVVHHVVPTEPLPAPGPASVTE
Excerpt: EXPERIMENTAL PROCEDURES IN VITRO ASSAY (ASSAY 1)
PRMT5-MEP50 enzyme was purchased from Charles River (Argenta). The enzyme complex was produced in insect cells (Sf9) infected simultaneously with two baculoviruses. One virus expresses full length human PRMT5 with Flag-tag at N-terminus, the second virus expresses full length MEP50 with His6-TEV cleavage at N-terminus. The protein was affinity purified using anti-Flag (M2) beads eluted with 3×FLAG peptide, followed by His-Select eluted with 0.5M imidazole. Eluted protein was then dialysed against tris-buffered saline (TBS) (pH 8.0) containing 20% glycerol and 3 mM dithiothreitol (DTT).
Full-length untagged human recombinant histone H2A (residues 1-130, Genbank Accession #NM_021052, MW=14.1 kDa) expressed in E. coli was purchased from Reaction Biology Corporation, Cat #HMT-11-146. Reagents used for making reaction buffer or stopping reaction were purchased including Tris base (Sigma Cat #T-1503), NaCl (Sigma Cat #RGF-3270), MgCl2 (Sigma Cat #M0250), DTT (Invitrogen Cat #15508-013) and Formic Acid (Riedel deHaen, Cat #33015)
High Throughput Mass Spectrometer Assay
PRMT5 catalyzes the sequential methylations of the terminal nitrogen atoms on the guanidine groups of arginine residues within proteins using co-substrate S-adenosyl-L-methionine (AdoMet, SAM), forming mono-methyl (MMA), symmetric-dimethyl arginine (sDMA) and S-adenosyl-L-homocysteine (AdoHcy, SAH). The enzyme activity was determined by following the product SAH formation using high throughput mass spectrometry (Agilent Rapidfire 300 System coupled to a Sciex 4000 series QTrapm triple-quad MS/MS). The reaction buffer was 20 mM Tris-HC, pH 8.5, 50 mM NaCl, 5 mM MgCl2 and 1 mM DTT. The reaction activity was stopped using 1% formic acid (final concentration).
The IC50 Studies were performed using eleven point dosing series made for each compound by serially diluted 1:2 in dimethyl sulfoxide (DMSO), with point 12 being a DMSO control. Compounds were first spotted to plates, and followed by addition of 2 μM SAM and 0.6 μM H2A (histone H2A) solution mixture. The same volume of enzyme solution was added to initiate the enzymatic reactions. The final concentrations of the reaction are at 1 μM SAM, 0.3 μM H2A and 10 nM enzyme. The reaction was incubated at 30° C. for 60 minutes (min) and then quenched by addition of formic acid to a final concentration of 1%. The inhibitions of SAH formation in the presence of compounds were calculated as a percentage of the control relative to the uninhibited reaction as a function of inhibitor concentration. The data were fit as follows: Y=Bottom+(Top−Bottom)/(1+10^((log IC50−X)*h))
where IC50 is the inhibitor concentration (same unit as X) at 50% inhibition and h is the Hill slope. Y is percent of inhibition, X is log of compound concentration. Bottom and Top are the plateaus in same units as Y.

IC50 (A549 cells) [nM] | IC50 (PRMT5-MEP50 enzyme) | pIC50 Assay 2 (A549 cells) | Structure (SMILES)
562 | 51.3 nM |  | NC[C@@H]1CC(F)(F)CN1C[C@H]1O[C@@H](n2ccc3c(N)cccc32)[C@H](O)[C@@H]1O [Compound 71b]
~3550 | 53.7 nM |  | NC[C@@H]1COCCN1C[C@H]1O[C@@H](n2ccc3c(N)ncnc32)[C@H](O)[C@@H]1O [Compound 72]
2450 | 209 nM |  | NC[C@H]1CC(F)(F)CN1C[C@H]1O[C@@H](n2ccc3c(N)ncnc32)[C@H](O)[C@@H]1O [Compound 73b]
372 | 37.2 nM and 35.5 nM | ~6.51 | CN1CC2(CCCN(C[C@H]3O[C@@H](n4ccc5c(N)ncnc54)[C@H](O)[C@@H]3O)C2)C1 [Compound 74]
> 10000 | 39800 nM |  | Nc1ncnc2c1ncn2[C@@H]1O[C@H](CN2CCC3(CCNCC3)C2)[C@@H](O)[C@H]1O [Compound 75]
 | 89.1 nM and 32.4 nM and 24.5 nM | ~5.65 and ~5.97 | Nc1ncnc2c1ncn2[C@@H]1O[C@H](CN2CCCC23CCNCC3)[C@@H](O)[C@H]1O [Compound 76]
> 10000 | 2820 nM |  | Nc1ncnc2c1ncn2[C@@H]1O[C@H](CN2CCC3(CCCN3)C2)[C@@H](O)[C@H]1O (stereo partly shown) [Compound 78]
> 10000 | 21400 nM |  | Nc1ncnc2c1ncn2[C@@H]1O[C@H](CN2CC3(CCCNC3)C2)[C@@H](O)[C@H]1O [Compound 79]
> 10000 | 3310 nM |  | Nc1ncnc2c1ncn2[C@@H]1O[C@H](CN2CCCCC23CNC3)[C@@H](O)[C@H]1O [Compound 80]
8130 | 355 nM |  | Nc1ncnc2c1ncn2[C@@H]1O[C@H](CN2CCC23CCNCC3)[C@@H](O)[C@H]1O [Compound 81]
2340 | 126 nM |  | Nc1ncnc2c1ncn2[C@@H]1O[C@H](CN2CCCC3(CNC3)C2)[C@@H](O)[C@H]1O [Compound 82]
> 10000 | 44700 nM |  | Nc1ncnc2c1ncn2[C@@H]1O[C@H](CN2CC3(CCCN3)C2)[C@@H](O)[C@H]1O [Compound 83]
> 10000 | 77600 nM |  | Nc1ncnc2c1ncn2[C@@H]1O[C@H](CN2CC3(CCNC3)C2)[C@@H](O)[C@H]1O [Compound 84]
> 10000 | 417 nM |  | Nc1ncnc2c1ncn2[C@@H]1O[C@H](CN2CCC3(CNC3)C2)[C@@H](O)[C@H]1O [Compound 86]
> 10000 | 2400 nM |  | Nc1ncnc2c1ncn2[C@@H]1O[C@H](CN2CCC23CCNC3)[C@@H](O)[C@H]1O (stereo partly shown) [Compound 87]
> 10000 | 46800 nM |  | Nc1ncnc2c1ncn2[C@@H]1O[C@H](CN2CC3(CCN3)C2)[C@@H](O)[C@H]1O [Compound 88]
> 10000 | 2750 nM |  | Nc1ncnc2c1ncn2[C@@H]1O[C@H](CN2CCC23CNC3)[C@@H](O)[C@H]1O [Compound 89]

IC50 (A549 cells) [nM] | IC50 (PRMT5-MEP50 enzyme) | pIC50 Assay 2 (A549 cells) | Structure (SMILES)
> 10000 | 70800 nM |  | CN1CCC2(CC1)CN(C[C@H]1O[C@@H](n3cnc4c(N)ncnc43)[C@H](O)[C@@H]1O)C2 [Compound 90]
> 10000 | 1230 nM |  | Nc1ncnc2c1ncn2[C@@H]1O[C@H](CN2CCCC23CNC3)[C@@H](O)[C@H]1O [Compound 91]
~1380 | 126 nM |  | CN1CC2(C1)CN(C[C@H]1O[C@@H](n3ccc4c(N)ncnc43)[C@H](O)[C@@H]1O)CCO2 [Compound 92]
~2450 | 3020 nM |  | Nc1ncnc2c1ccn2[C@@H]1O[C@H](CN2CCOC3(C2)CN(Cc2ccc(Cl)cc2)C3)[C@@H](O)[C@H]1O [Compound 93]
~50.1 | > 10000 nM |  | CC(C)C(=O)O[C@@H]1[C@H](OC(=O)C(C)C)[C@@H](CN2CCCC23CCNCC3)O[C@H]1n1ccc2c(N)ncnc21 [Compound 94]
 | > 10000 nM | 6.94 and 6.95 | CC(C)C(=O)O[C@@H]1[C@H](OC(=O)C(C)C)[C@@H](CN2CCCC23CCN(C)CC3)O[C@H]1n1ccc2c(N)ncnc21 [Compound 95a]
 | > 100000 nM | ~7.34 and 7.05 | CC(C)C(=O)O[C@@H]1[C@H](OC(=O)C(C)C)[C@@H](CN2CCCC23CCN(C)CC3)O[C@H]1n1ccc2c(N)ncnc21 [Compound 95b]
20.4 | 631 nM |  | CC(C)C(=O)O[C@H]1[C@@H](O)[C@H](n2ccc3c(N)ncnc32)O[C@@H]1CN1CCCC12CCN(C)CC2 [Compound 96]
204 | 174 nM |  | CC(=O)O[C@H]1[C@@H](O)[C@H](n2ccc3c(N)ncnc32)O[C@@H]1CN1CCCC12CCN(C)CC2 [Compound 99]
 | > 10000 nM | 6.46 | CC(C)C(=O)O[C@@H]1[C@H](OC(=O)C(C)C)[C@@H](CN2CC(F)(F)CC23CCN(C)CC3)O[C@H]1n1ccc2c(N)ncnc21 [Compound 103]
1580 | > 10000 nM |  | CC(C)C(=O)O[C@@H]1[C@H](OC(=O)C(C)C)[C@@H](CN2CCCC23CCN(C)CC3)O[C@H]1c1ccc2c(N)ncnn12 [Compound 104]
6610 | > 10000 nM |  | CC(C)C(=O)O[C@@H]1[C@H](OC(=O)C(C)C)[C@@H](CN2CC(F)(F)CC23CCN(C)CC3)O[C@H]1c1ccc2c(N)ncnn12 [Compound 105]
19500 | > 10000 nM |  | CC(C)C(=O)O[C@@H]1[C@@H](CN2CC(F)(F)CC23CCN(C)CC3)C[C@@H](n2ccc3c(N)ncnc32)[C@@H]1OC(=O)C(C)C [Compound 106]
126 | > 10000 nM |  | CC(C)C(=O)O[C@@H]1[C@H](OC(=O)C(C)C)[C@@H](CN2CC(F)(F)CC23CCNCC3)O[C@H]1c1ccc2c(N)ncnn12 [Compound 107]
204 | 25.7 nM |  | Nc1ncnc2c1ccn2[C@@H]1O[C@H](CN2CCOCC23CCNCC3)[C@@H](O)[C@H]1O [Compound 108]
> 10000 | 2240 nM |  | Nc1ncnn2c([C@@H]3O[C@H](CN4CCOC5(CNC5)C4)[C@@H](O)[C@H]3O)ccc12 [Compound 109]
